From patent US20250215030A1, “STAT MODULATORS AND USES THEREOF” (Recludix Pharma, Inc., priority 2022, published 2025) come the findings set out here.

pIC50: −log10 of the molar value.

Assay [1] addresses T1, Recombinant STAT3 protein (STAT3(G127-I722)) (Homo sapiens, UniProt P40763).
T1 construct: STAT3(G127-I722)
The assay is described as follows: STAT3 Fluorescence Polarization (FP) Assay. In kind it is binding. The conditions noted are these: STAT3(G127-I722) 25 nM, probe 5-FAM-GpYLPQTV-NH2 2 nM, 45-minute incubation. The procedure, abridged: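 Serially diluted compounds (1% DMSO) were mixed with 2 nM fluorescent phosphotyrosine peptide and 25 nM STAT3 construct G127-I722, pH 7.4, incubated 45 min at room temperature. IC50 values from fitted polarization curves are reported as categories A (≤100 nM), B, C, D (>10 μM).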
For orientation: In fluorescence polarisation assays a small probe gives low polarisation when free and higher when bound to something large.

Assay [2] deals with T2, Recombinant STAT6 protein (STAT6(W123-T658)) (Homo sapiens, UniProt P42226).
T2 construct: STAT6(W123-T658)
T2 sequence (P42226 123-658): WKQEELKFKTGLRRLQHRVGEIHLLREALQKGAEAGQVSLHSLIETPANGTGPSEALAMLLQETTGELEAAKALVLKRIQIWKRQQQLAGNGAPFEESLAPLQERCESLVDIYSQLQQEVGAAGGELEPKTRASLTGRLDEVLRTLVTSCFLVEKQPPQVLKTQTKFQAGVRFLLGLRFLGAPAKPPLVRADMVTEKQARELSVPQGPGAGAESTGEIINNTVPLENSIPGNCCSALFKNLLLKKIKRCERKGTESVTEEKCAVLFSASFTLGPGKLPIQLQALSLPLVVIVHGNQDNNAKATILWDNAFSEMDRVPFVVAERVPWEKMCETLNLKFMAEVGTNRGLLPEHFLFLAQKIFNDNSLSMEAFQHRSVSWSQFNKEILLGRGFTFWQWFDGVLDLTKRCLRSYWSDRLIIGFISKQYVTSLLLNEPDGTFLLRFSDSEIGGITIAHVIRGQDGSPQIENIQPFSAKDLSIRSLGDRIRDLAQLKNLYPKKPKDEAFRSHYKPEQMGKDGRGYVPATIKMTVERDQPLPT
The assay is described as follows: STAT6 Fluorescence Polarization (FP) Assay. The settings on record: STAT6(W123-T658) 250 nM, probe 5-FAM-ApYKPFQDLI-NH2 2 nM, 45-minute incubation. In kind it is binding. The procedure, abridged: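 Competitive displacement of a fluorescent phosphotyrosine peptide (2 nM) from recombinant STAT6 W123-T658 (250 nM), 45 min at room temperature in 10 mM HEPES pH 7.4, 50 mM NaCl, 2 mM DTT. mP fitted against log compound for IC50, grouped A (≤300 nM) to D (>30 μM).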

By pIC50 is commonly meant the negative decadic logarithm of the IC50, by convention in mol/L.

T1 sequence (P40763 127-722, species assumed): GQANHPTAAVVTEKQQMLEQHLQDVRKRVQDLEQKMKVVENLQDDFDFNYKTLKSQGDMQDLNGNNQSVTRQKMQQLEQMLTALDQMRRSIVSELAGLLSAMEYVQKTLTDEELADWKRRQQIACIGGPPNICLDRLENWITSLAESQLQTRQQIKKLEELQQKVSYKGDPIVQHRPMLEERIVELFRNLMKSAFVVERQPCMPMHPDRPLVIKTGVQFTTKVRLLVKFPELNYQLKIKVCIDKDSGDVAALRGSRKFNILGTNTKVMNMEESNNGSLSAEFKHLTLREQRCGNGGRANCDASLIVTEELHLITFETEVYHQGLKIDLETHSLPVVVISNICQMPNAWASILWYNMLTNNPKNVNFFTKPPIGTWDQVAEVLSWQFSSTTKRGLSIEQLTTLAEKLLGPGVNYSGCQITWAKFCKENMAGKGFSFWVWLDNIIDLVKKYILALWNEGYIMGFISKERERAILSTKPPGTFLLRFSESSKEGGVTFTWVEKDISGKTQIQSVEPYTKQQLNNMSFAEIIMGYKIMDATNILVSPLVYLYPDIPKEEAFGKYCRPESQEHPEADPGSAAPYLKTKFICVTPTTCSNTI

As for `O=C(N[C@H]1C[C@@H]2C[C@@H]2C[C@H]2CC[C@@H](C(=O)N3C[C@H]4[C@@H]3CCN4c3cccnc3)N2C1=O)c1cc2cc(C(F)P(=O)(O)O)ccc2s1` (stereo partly drawn) [Example 295, (fluoro(2-(((3S,6S,7aS,8aR,9aR)-5-oxo-3-((1S,5S)-2-(pyridin-3-yl)-2,6-diazabicyclo[3.2.0]heptane-6-carbonyl)decahydro-1H-cyclopropa[d]pyrrolo[1,2-a]azocin-6-yl)carbamoyl)benzo[b]thiophen-5-yl)methyl)phosphonic acid], the pIC50 is > 7.00 in assay [1] and 5.52 to 6.52 in assay [2].

For the molecule `O=C(N[C@H]1C[C@@H]2C[C@@H]2C[C@H]2CC[C@@H](C(=O)N3C[C@@H]4[C@H]3CCN4c3cccnc3)N2C1=O)c1cc2cc(C(F)P(=O)(O)O)ccc2s1` (stereo partly drawn) [Example 296, (fluoro(2-(((3S,6S,7aS,8aR,9aR)-5-oxo-3-((1R,5R)-2-(pyridin-3-yl)-2,6-diazabicyclo[3.2.0]heptane-6-carbonyl)decahydro-1H-cyclopropa[d]pyrrolo[1,2-a]azocin-6-yl)carbamoyl)benzo[b]thiophen-5-yl)methyl)phosphonic acid], the pIC50 in assay [1] is > 7.00; in assay [2] it was 5.52 to 6.52.

For `O=C(N[C@H]1C[C@@H]2C[C@@H]2C[C@H]2CC[C@@H](C(=O)N3CC(c4ccon4)C3)N2C1=O)c1cc2cc(C(F)(F)P(=O)(O)O)ccc2s1` [Example 299, (difluoro(2-(((3S,6S,7aS,8aR,9aR)-3-(3-(isoxazol-3-yl)azetidine-1-carbonyl)-5-oxodecahydro-1H-cyclopropa[d]pyrrolo[1,2-a]azocin-6-yl)carbamoyl)benzo[b]thiophen-5-yl)methyl)phosphonic acid], the pIC50 was > 7.00 in assay [1] and 5.52 to 6.52 in assay [2].

On to `O=C(N[C@H]1C[C@@H]2C[C@@H]2C[C@H]2CC[C@@H](C(=O)N3CC(c4ncco4)C3)N2C1=O)c1cc2cc(C(F)(F)P(=O)(O)O)ccc2s1` [Example 300, (difluoro(2-(((3S,6S,7aS,8aR,9aR)-3-(3-(oxazol-2-yl)azetidine-1-carbonyl)-5-oxodecahydro-1H-cyclopropa[d]pyrrolo[1,2-a]azocin-6-yl)carbamoyl)benzo[b]thiophen-5-yl)methyl)phosphonic acid], for which the pIC50 is > 7.00 in assay [1] and 5.52 to 6.52 in assay [2].

As to `O=C(N[C@H]1C[C@@H]2C[C@@H]2C[C@H]2CC[C@@H](C(=O)N3CC(N4CCS(=O)(=O)CC4)C3)N2C1=O)c1cc2cc(C(F)P(=O)(O)O)ccc2s1` (stereo partly drawn) [Example 301, ((2-(((3S,6S,7aS,8aR,9aR)-3-(3-(1,1-dioxidothiomorpholino)azetidine-1-carbonyl)-5-oxodecahydro-1H-cyclopropa[d]pyrrolo[1,2-a]azocin-6-yl)carbamoyl)benzo[b]thiophen-5-yl)fluoromethyl)phosphonic acid], the pIC50 is 6.00 to 7.00 in assay [1] and 4.52 to 5.52 in assay [2].

Turning to `O=C(N[C@H]1C[C@H]2C[C@H]2C[C@H]2CC[C@@H](C(=O)N3CC(N4CCS(=O)(=O)CC4)C3)N2C1=O)c1cc2cc(C(F)P(=O)(O)O)ccc2s1` (some centres unmarked) [Example 302], the pIC50 in assay [1] was 6.00 to 7.00; in assay [2] it was 4.52 to 5.52.

With `O=C(N[C@H]1C[C@@H]2C[C@@H]2C[C@H]2CC[C@@H](C(=O)N3CC(c4cnccc4F)C3)N2C1=O)c1cc2cc(C(F)(F)P(=O)(O)O)ccc2s1` [Example 303, (difluoro(2-(((3S,6S,7aS,8aR,9aR)-3-(3-(4-fluoropyridin-3-yl)azetidine-1-carbonyl)-5-oxodecahydro-1H-cyclopropa[d]pyrrolo[1,2-a]azocin-6-yl)carbamoyl)benzo[b]thiophen-5-yl)methyl)phosphonic acid], the pIC50 is > 7.00 in assay [1] and 5.52 to 6.52 in assay [2].
